Laboratory results as given in patent publication US12338219B2, “Antimalarial agents” (Merck Sharp & Dohme LLC, priority 2019, dated 2025).

tested on: parasites (ring stage parasites, parasite growth); test: Parasite LDH growth assay (Parasite Assay), antiparasite potency; type: cell-based; settings: 72 hours growth, LDH readout; Table 3
Method: Assessing Antiparasite Potency in a Parasite LDH Growth Assay (Parasite Assay) The parasite stock was maintained at […] in RPMI-Hepes media buffered with sodium bicarbonate and supplemented with […]. […] On the day of assay set up, a blood smear of the parasite culture was Giemsa stained and counted. The parasitemia was adjusted to 0.7% rings and the haematocrit was diluted to 2% in RPMI-Hepes media buffered with sodium bicarbonate and supplemented with 500 heat inactivated human serum and 0.5% albumax. 30 ul of diluted parasites are then added into 10 ul of media+compound in pre-prepared Greiner TC assay plates. Parasite assay plates were placed in gassed humidified boxes in single layer and allowed to incubate at 37° C. for 72 hours. After 72 hours growth, assay plates are sealed with parafilm and frozen flat, in single file at −80° C. overnight. On the following day, assay plates are allowed to thaw at room temperature for 4 hours to which an LDH assay is performed to measure parasite growth.

Row | Structure (SMILES) | EC50
1 | CCC1(CC)CC(=O)N(CC2C(C(=O)N[C@H]3CC(C)(C)Oc4ccccc43)C2(F)F)C(=N)N1 (single isomer, unassigned) [Example 16A] | 33 nM
2 | CCC1(CC)CC(=O)N(CC2C(C(=O)N[C@H]3CC(C)(C)Oc4ccccc43)C2(F)F)C(=N)N1 (single isomer, unassigned) [Example 16B] | 119 nM
3 | CCC1(CC)CC(=O)N(CC2C(C(=O)N[C@H]3C[C@H](C(F)(F)F)Oc4ccccc43)C2(F)F)C(=N)N1 (single isomer, unassigned) [Example 17A] | 47 nM
4 | CCC1(CC)CC(=O)N(CC2C(C(=O)N[C@H]3C[C@H](C(F)(F)F)Oc4ccccc43)C2(F)F)C(=N)N1 (single isomer, unassigned) [Example 17B] | 20 nM
5 | CCC1(CC)CC(=O)N(C[C@@H]2C(C)[C@H]2C(=O)N[C@H]2CC(C)(C)Oc3ccccc32)C(=N)N1 (single isomer, unassigned) [Example 25A] | 84 nM
6 | CCC1(CC)CC(=O)N(C[C@@H]2C(C)[C@H]2C(=O)N[C@H]2CC(C)(C)Oc3ccccc32)C(=N)N1 (single isomer, unassigned) [Example 25B] | 25 nM
7 | CCC1(CC)CC(=O)N(C[C@@H]2C(C)[C@H]2C(=O)N[C@@H]2c3ccccc3CC2(C)O)C(=N)N1 (single isomer, unassigned) [Example 29A] | 203 nM
8 | CCC1(CC)CC(=O)N(C[C@@H]2C(C)[C@H]2C(=O)N[C@@H]2c3ccccc3CC2(C)O)C(=N)N1 (single isomer, unassigned) [Example 29B] | 351 nM
9 | CCC1(CC)CC(=O)N(C[C@@H]2C(C)[C@H]2C(=O)N[C@@H]2c3ccccc3CC2(C)O)C(=N)N1 (single isomer, unassigned) [Example 29C] | 113 nM
10 | CCC1(CC)CC(=O)N(C[C@@H]2C(C)[C@H]2C(=O)N[C@@H]2c3ccccc3OC(C)(C)[C@H]2O)C(=N)N1 (single isomer, unassigned) [Example 30A] | 45 nM
11 | CCC1(CC)CC(=O)N(C[C@@H]2C(C)[C@H]2C(=O)N[C@@H]2c3ccccc3OC(C)(C)[C@H]2O)C(=N)N1 (single isomer, unassigned) [Example 30B] | 7.7 nM
12 | CCC1(CC)CC(=O)N(C[C@@H]2C(C)[C@H]2C(=O)N[C@@H]2c3ccccc3OCC2(C)O)C(=N)N1 (single isomer, unassigned) [Example 35A] | 85 nM
13 | CCC1(CC)CC(=O)N(C[C@@H]2C(C)[C@H]2C(=O)N[C@@H]2c3ccccc3OCC2(C)O)C(=N)N1 (single isomer, unassigned) [Example 35B] | 220 nM
14 | CC1[C@@H](C(c2cccnc2)N2C(=N)NC(C)(C)CC2=O)[C@@H]1C(=O)N[C@H]1C[C@H](C(F)(F)F)Oc2ccccc21 (single isomer, unassigned) [Example 54A] | 1 nM
15 | CC1[C@@H](C(c2cccnc2)N2C(=N)NC(C)(C)CC2=O)[C@@H]1C(=O)N[C@H]1C[C@H](C(F)(F)F)Oc2ccccc21 (single isomer, unassigned) [Example 54B] | 130 nM
16 | CCC1(C)CC(NC(=O)[C@@H]2C[C@H]2[C@@H](CCOC)N2C(=N)NC(C)(C)CC2=O)c2ccccc2O1 (single isomer, unassigned) [Example 75B] | 7.5 nM
17 | CCC1(C)CC(NC(=O)[C@@H]2C[C@H]2[C@@H](CCOC)N2C(=N)NC(C)(C)CC2=O)c2ccccc2O1 (single isomer, unassigned) [Example 75C] | 7 nM
18 | CCC1(C)CC(NC(=O)[C@@H]2C[C@H]2[C@@H](CCOC)N2C(=N)NC(C)(C)CC2=O)c2ccccc2O1 (single isomer, unassigned) [Example 75D] | 7 nM

Row | Structure (SMILES) | EC50
19 | CC(C)C1(C)CC(NC(=O)[C@@H]2C[C@H]2CN2C(=N)NC(C)(C)CC2=O)c2ccccc2O1 (single isomer, unassigned) [Example 79B] | 275 nM
20 | CC(C)C1(C)CC(NC(=O)[C@@H]2C[C@H]2CN2C(=N)NC(C)(C)CC2=O)c2ccccc2O1 (single isomer, unassigned) [Example 79C] | 289 nM
21 | COCC[C@H]([C@@H]1C[C@H]1C(=O)NC1CC(C)(C(C)C)Oc2ccccc21)N1C(=N)NC(C)(C)CC1=O (single isomer, unassigned) [Example 80A] | 9.4 nM
22 | COCC[C@H]([C@@H]1C[C@H]1C(=O)NC1CC(C)(C(C)C)Oc2ccccc21)N1C(=N)NC(C)(C)CC1=O (single isomer, unassigned) [Example 80B] | 6.6 nM
23 | COCC[C@H]([C@@H]1C[C@H]1C(=O)NC1CC(C)(C(C)C)Oc2ccccc21)N1C(=N)NC(C)(C)CC1=O (single isomer, unassigned) [Example 80C] | 14 nM
24 | COCC[C@H]([C@@H]1C[C@H]1C(=O)NC1CC(C)(C(C)C)Oc2ccccc21)N1C(=N)NC(C)(C)CC1=O (single isomer, unassigned) [Example 80D] | 21 nM
25 | CC(C)C1(C)CC(NC(=O)[C@@H]2C[C@H]2[C@@H](c2cccnc2)N2C(=N)NC(C)(C)CC2=O)c2ccccc2O1 (single isomer, unassigned) [Example 81A] | 2.7 nM
26 | CC(C)C1(C)CC(NC(=O)[C@@H]2C[C@H]2[C@@H](c2cccnc2)N2C(=N)NC(C)(C)CC2=O)c2ccccc2O1 (single isomer, unassigned) [Example 81B] | 1 nM
27 | CC(C)C1(C)CC(NC(=O)[C@@H]2C[C@H]2[C@@H](c2cccnc2)N2C(=N)NC(C)(C)CC2=O)c2ccccc2O1 (single isomer, unassigned) [Example 81C] | 0.9 nM
28 | CC(C)C1(C)CC(NC(=O)[C@@H]2C[C@H]2[C@@H](c2cccnc2)N2C(=N)NC(C)(C)CC2=O)c2ccccc2O1 (single isomer, unassigned) [Example 81D] | 1.3 nM
29 | COCC[C@H]([C@@H]1C[C@H]1C(=O)NC1CC(C)(COC)Oc2ccccc21)N1C(=N)NC(C)(C)CC1=O (single isomer, unassigned) [Example 82A] | 24.4 nM
30 | COCC[C@H]([C@@H]1C[C@H]1C(=O)NC1CC(C)(COC)Oc2ccccc21)N1C(=N)NC(C)(C)CC1=O (single isomer, unassigned) [Example 82B] | 57 nM
31 | COCC[C@H]([C@@H]1C[C@H]1C(=O)NC1CC(C)(COC)Oc2ccccc21)N1C(=N)NC(C)(C)CC1=O (single isomer, unassigned) [Example 82C] | 53 nM
32 | COCC[C@H]([C@@H]1C[C@H]1C(=O)NC1CC(C)(COC)Oc2ccccc21)N1C(=N)NC(C)(C)CC1=O (single isomer, unassigned) [Example 82D] | 27 nM
33 | CC1(C)CC(=O)N([C@H](c2cccnc2)[C@@H]2C[C@H]2C(=O)NC2CC(C)(C)Oc3ccc(F)cc32)C(=N)N1 (single isomer, unassigned) [Example 98A] | 0.9 nM
34 | CC1(C)CC(=O)N([C@H](c2cccnc2)[C@@H]2C[C@H]2C(=O)NC2CC(C)(C)Oc3ccc(F)cc32)C(=N)N1 (single isomer, unassigned) [Example 98B] | 2.2 nM
35 | CC[C@]1(C)CC(=O)N(C(c2cncc(F)c2)[C@@H]2C[C@H]2C(=O)N[C@@H]2c3ccccc3OC(C)(C)C2(C)O)C(=N)N1 (single isomer, unassigned) [Example 103A] | 29 nM
36 | CC[C@]1(C)CC(=O)N(C(c2cncc(F)c2)[C@@H]2C[C@H]2C(=O)N[C@@H]2c3ccccc3OC(C)(C)C2(C)O)C(=N)N1 (single isomer, unassigned) [Example 103B] | 2.1 nM
